According to patent US20120157717A1, “METHODS AND COMPOSITIONS FOR PRODUCING LINEAR ALKYL BENZENES” (LS9, INC., priority 2010, published 2012):
Like-named read-outs stand apart in the source and are kept apart here.

T1: PCC7942_orf1594 protein (Synechococcus elongatus, UniProt Q54765)
T1 construct: His-tag (C); made in house; host or cells: E. coli BL21 (DE3)
T1 sequence (Q54765 1-341): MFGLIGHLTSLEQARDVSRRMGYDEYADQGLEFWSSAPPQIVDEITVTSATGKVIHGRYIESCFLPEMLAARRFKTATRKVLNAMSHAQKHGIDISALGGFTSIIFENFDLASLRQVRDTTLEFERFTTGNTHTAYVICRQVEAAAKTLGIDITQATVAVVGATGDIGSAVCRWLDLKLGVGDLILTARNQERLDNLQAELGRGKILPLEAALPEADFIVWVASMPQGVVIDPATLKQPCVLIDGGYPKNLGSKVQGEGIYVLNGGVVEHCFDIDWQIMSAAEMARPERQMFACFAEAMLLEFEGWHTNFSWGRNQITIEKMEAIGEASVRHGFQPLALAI

B1: Synechococcus elongatus PCC7942 YP-400611 (Synpcc7942-1594) acyl-ACP reductase, purified with C-terminal His-tag (protein)
chain: T1 sequence (Q54765 1-341)

Experiments:
[1] = molecular target: T1, PCC7942_orf1594 protein; test: acyl-ACP or acyl-CoA reductase enzyme assay (aldehyde formed, GC/MS); type: biochemical, Synechococcus elongatus PCC7942
Procedure: The genomic DNA encoding S. elongatus […] orf1594 (SEQ ID NO:65) was cloned into the NcoI and XhoI sites of vector pET-28b under the control of the T7 promoter. The resulting PCC7942_orf1594 protein contained a C-terminal His-tag. An E. coli BL21 strain (DE3) (Invitrogen) was transformed with the plasmid and PCC7942_orf1594 protein was expressed and purified as described in Example 22. The protein solution was stored in the following buffer: 50 mM sodium phosphate, pH 7.5, 100 mM NaCl, 1 mM THP, 10% glycerol. Protein concentration was determined using the Bradford assay (Biorad). 2 mg/mL of PCC7942_orf1594 protein was obtained.
To test PCC7942_orf1594 protein for acyl-ACP or acyl-CoA reductase activity, the following enzyme assays were set-up. 100 μL reactions were set-up in 50 mM Tris-HCl buffer at pH 7.5 with the following components at their respective final concentrations: 10 μM of purified PCC7942_orf1594 protein, 0.01-1 mM acyl-CoA or acyl-ACP, 2 mM MgCl2, 0.2-2 mM NADPH. The reactions were incubated for 1 h at 37° C. and where stopped by adding 100 μL ethyl acetate (containing 5 mg/l 1-octadecene as internal standard). Samples were vortexed for 15 min and centrifuged at max speed for 3 min for phase separation. 80 μL of the top layer were transferred into GC glass vials and analyzed by GC/MS as described in Example 26. The amount of aldehyde formed was calculated based on the internal standard.

[2] = tested on: Prochlorococcus marinus CCMP1986 PMM0532 (NP-892650; putative decarbonylase)
[3] = molecular target: octadecenoyl-ACP
[4] = in the presence of 2 mM NADPH, 10 μM purified enzyme, 2 mM MgCl2, pH 7.5, 1 h at 37° C., read-out: Km for the reduction of the acyl substrate

Molecule	Km [1, 4]	further results
octadecenoyl-CoA	82 ± 22 µM	
NC(=O)C1=CN([C@@H]2O[C@H](COP(=O)(O)OP(=O)(O)OC[C@H]3O[C@@H](n4cnc5c(N)ncnc54)[C@H](OP(=O)(O)O)[C@@H]3O)[C@@H](O)[C@H]2O)C=CC1 [NADPH, reference compound]		Km ([1]; in the presence of 0.5 mM octadecanoyl-CoA, read-out: Km value for NADPH): 400 ± 80 µM
Prochlorococcus marinus CCMP1986 PMM0533 (NP-892651; putative aldehyde-generating enzyme)		hydrocarbon and fatty alcohol production by cotransformed E. coli MG1655 (GC/MS) [2]: E. coli cells transformed with only the P. marinus CCMP1986 PMM0533-bearing vector did not produce any fatty aldehydes or fatty alcohols. However, E. coli cells cotransformed with PMM0533 and PMM0532-bearing vectors produced hexadecanol, pentadecane and heptadecene
octadecenoyl-ACP	7.8 ± 2 µM	
CCCCCCCCCCCCCCCCCC(=O)SCCNC(=O)CCNC(=O)[C@H](O)C(C)(C)COP(=O)(O)OP(=O)(O)OC[C@H]1O[C@@H](n2cnc3c(N)ncnc32)[C@H](O)[C@@H]1OP(=O)(O)O [octadecanoyl-CoA]	45 ± 20 µM	
B1		Km for the reduction of octadecenoyl-ACP in the presence of 2 mM NADPH (in vitro reductase assay, GC/MS) [3]: 7.8 ± 2 µM
